The values that follow come from US7563781B2, “Triazolopyrimidine derivatives” (Janssen Pharmaceutica NV, priority 2006, dated 2009).

SMILES strings stand for the structures.

In assay [1] the target is T1, Focal Adhesion Kinase (full-length Flag-tagged human FAK) (Homo sapiens, UniProt Q05397).
T1 construct: a purified recombinant full-length Flag-tagged human FAK protein; Flag; made in house; host or cells: baculovirus infected insect cells
The assay is described as follows: in vitro FAK ELISA kinase assay. The format is biochemical. The conditions noted are these: compound 10 uM; ATP 2 uM; read-out: FAK % Inhib ave: 10 uM. The protocol:
Compound effects on the tyrosine kinase activity of Focal Adhesion Kinase were assessed with an in vitro FAK ELISA kinase assay. This assay measures the incorporation of phosphate from ATP into a FAK substrate protein using an antibody specific for phospho-tyrosine.
500 ng of FAKsubstrate, a purified recombinant fusion protein of GST and a 73 amino acid region surrounding the Tyr397 human FAK autophosphorylation site, was coated in a high-protein binding polystyrene 96 well plate overnight in a buffer containing 50 mM Hepes, pH 7.5, 150 mM NaCl, 0.1 mM Na-oVO4, 0.1 mM NaF and 1 protease inhibitor tablet/10 mL (Complete Mini-EDTA-free, Roche). The next day this solution was removed and the wells were incubated with 0.2% BSA in 50 mM Hepes, pH 7.5, 150 mM NaCl, 0.2 mM PMSF for 1 hour at 30° C. to block unoccupied protein binding sites. The wells were then washed with 50 mM Hepes, pH 7.5, 150 mM NaCl, 0.1% Tween 20. The kinase reaction was performed with 25 ng/well of FAK enzyme (a purified recombinant full-length Flag-tagged human FAK protein made in baculovirus infected insect cells) in 0.1 mL of a buffer containing 25 mM Hepes, pH 7.5, 5 mM MgCl2, 0.5 mM MnCl2, 10 uM NaoVO4, 0.2 mM PMSF. Compounds were added from 30% DMSO stock solutions for a screening concentration of 10 uM or IC50 determinations from 50 uM in half-log dilutions. The reaction is initiated with addition of ATP to a final concentration of 2 uM and incubated at 30° C. for 1 hour. Following the kinase reaction step, the wells were washed and incubated with 50 ng of Horseradish Peroxidase conjugated anti-phosphotyrosine antibody (PT-66 HRP, Sigma) in 0.1 mL wash buffer for 1 hour at 30° C. Wells were then washed and 0.1 mL HRP substrate, Tetra-methyl Benzidine (Sigma) was added and the color reaction allowed to proceed for 2-3 minutes followed by the addition of 0.1 mL of 1N H2SO4 to stop the HRP reaction. Percent inhibition of FAK kinase activity was calculated by comparing compound containing wells to wells treated with diluent only. Background was subtracted from all wells and was defined as the activity of FAK using 500 ng/well of BSA as a substrate. IC50 values were obtained using Prism data analysis software.
On the technique in general: ELISA stands for enzyme-linked immunosorbent assay.

The target of assay [2] is T2, CAK complex (human Cdk7, human Cyclin H, MAT-1) (Homo sapiens, UniProt P50613).
T2 construct: made in house; host or cells: SF-900 insect cells co-infected with Flag-Cdk7 and Bab-Cyclin H baculoviruses
The assay is described as follows: in vitro time-resolved-fluorescence assay for the CAK kinase activity. The format is biochemical. The note with it: compound 20 uM; read-out: CAK % inhib; 20 uM. From the text: Cyclin Dependent Kinase Activating Kinase (CAK) is a complex of proteins that phosphorylates a well-conserved threonine (Thr) residue in all mammalian cyclin dependent kinases (cdks). The CAK complex can also phosphorylate several components of the transcriptional machinery, such as the C-terminal domain (CTD) of RNA polymerase II in the TFIIH transcription complex. The CAK complex localizes to the nucleus, and is composed of three proteins: Cdk7, Cyclin H, and MAT-1. The exemplified method teaches the cloning and expression CAK subunits, particularly a human Cdk7 and a human Cyclin H. The method of the present invention exemplified herein is equally applicable to the cloning and expression of any CAK subunit, such as variants, structural or functional polymorphisms of the human Cdk7 or the human Cyclin H, or their orthologs in other animals such as rat, mouse, pig, dog and monkey.
The CAK complex was purified from co-infected SF-900 insect cells at 48 hours post infection by batch immunoaffinity purification. The infected cells were pelleted by centrifugation and lysed in 1/10 of the culture volume in a solution containing 50 mM Hepes pH 7.5, 10 mM MgCl2, 1 mM DTT, 10 mM Beta-Glycerol phosphate, 20 uM Na-oVO4, 0.2 mM PMSF and 1 μg/mL each of leupeptin, aprotinin, and pepstatin on ice. Cells were mechanically lysed by trituration through a 22-gauge needle followed by sonication or alternately by nitrogen cavitation. The lysed cells were centrifuged at 50,000×G for 1 hour at 4° C. to remove debris and the supernatant was applied to 1/10 volume of prewashed Flag-M2 immunoaffinity resin (Sigma). The CAK complex, by nature of the Flag tagged Cdk7 protein, was allowed to bind to the Flag antibody of the resin overnight at 4° C. with gentle rocking. The resin was washed 4 times with 5 resin volumes of lysis buffer and the bound proteins were eluted by competition with 0.5 mg/mL Flag peptide ([…], American Peptide Co, Inc., SEQ ID NO: 16) in a total of 2 resin volumes. To remove the Flag peptide, the eluted material was applied to PD-10 gel filtration columns (Pharmacia) under conditions recommended by the manufacturer.
Measurement of CAK kinase activity was accomplished using an antibody methodology in which a Europium labeled antibody binds preferentially to serine phosphorylated GST-CTD substrate. The long-lived europium label fluorescence allows a greater signal-to-noise ratio due to the delay in reading the emission wavelength, thereby eliminating signals from immediate fluorescence and fluorescent pharmaceutical screening compounds.
The time-resolved-fluorescence assay for the CAK kinase activity is performed as follows. In a well of a black glutathione coated 96 well micro titer plate (Pierce Chemical, No. 15360), the following reagents were added: 1) 25 ul substrate solution containing 500 ng purified GST-CTD in a buffer having 50 mM Hepes pH 7.5, 10 mM MgCl2, 1 mM DTT, 0.2 mM PMSF, 40 uM Na-oVO4, and 22 uM ATP (as a background control, the buffer, including ATP but not substrate was added); 2) 2.5 ul of screening compounds in a diluent containing 30% DMSO/25 mM Hepes pH7.5 (As a control, the diluent only was added. Typically the final concentration of compound is 1 uM); and 3) 250 ng CAK enzyme complex in enzyme buffer containing 25 ul of 50 mM Hepes pH 7.5, 10 mM MgCl2, 1 mM DTT, 0.2 mM PMSF, and 40 uM Na-oVO4. The micro titer plate was shaken for 2 minutes on a titer plate shaker and allowed to incubate at 30° C. for 20 minutes.
Subsequently, Kinase Stop Solution (75 mM EDTA, 0.2 mM PMSF, 1 mM DTT, 120 uM Na oVO4 in PBS) was added (50 ul/well). The plate was shaken for 2 minutes and incubated overnight at room temperature to allow substrate binding to the wells. The plate contents were flicked out, and the wells of the plate were washed 4 times with 350 ul of wash buffer (Delphia wash buffer, Perkin-Elmer, Inc.). The plate was tapped dry. […]

T1 sequence (Q05397 whole entry): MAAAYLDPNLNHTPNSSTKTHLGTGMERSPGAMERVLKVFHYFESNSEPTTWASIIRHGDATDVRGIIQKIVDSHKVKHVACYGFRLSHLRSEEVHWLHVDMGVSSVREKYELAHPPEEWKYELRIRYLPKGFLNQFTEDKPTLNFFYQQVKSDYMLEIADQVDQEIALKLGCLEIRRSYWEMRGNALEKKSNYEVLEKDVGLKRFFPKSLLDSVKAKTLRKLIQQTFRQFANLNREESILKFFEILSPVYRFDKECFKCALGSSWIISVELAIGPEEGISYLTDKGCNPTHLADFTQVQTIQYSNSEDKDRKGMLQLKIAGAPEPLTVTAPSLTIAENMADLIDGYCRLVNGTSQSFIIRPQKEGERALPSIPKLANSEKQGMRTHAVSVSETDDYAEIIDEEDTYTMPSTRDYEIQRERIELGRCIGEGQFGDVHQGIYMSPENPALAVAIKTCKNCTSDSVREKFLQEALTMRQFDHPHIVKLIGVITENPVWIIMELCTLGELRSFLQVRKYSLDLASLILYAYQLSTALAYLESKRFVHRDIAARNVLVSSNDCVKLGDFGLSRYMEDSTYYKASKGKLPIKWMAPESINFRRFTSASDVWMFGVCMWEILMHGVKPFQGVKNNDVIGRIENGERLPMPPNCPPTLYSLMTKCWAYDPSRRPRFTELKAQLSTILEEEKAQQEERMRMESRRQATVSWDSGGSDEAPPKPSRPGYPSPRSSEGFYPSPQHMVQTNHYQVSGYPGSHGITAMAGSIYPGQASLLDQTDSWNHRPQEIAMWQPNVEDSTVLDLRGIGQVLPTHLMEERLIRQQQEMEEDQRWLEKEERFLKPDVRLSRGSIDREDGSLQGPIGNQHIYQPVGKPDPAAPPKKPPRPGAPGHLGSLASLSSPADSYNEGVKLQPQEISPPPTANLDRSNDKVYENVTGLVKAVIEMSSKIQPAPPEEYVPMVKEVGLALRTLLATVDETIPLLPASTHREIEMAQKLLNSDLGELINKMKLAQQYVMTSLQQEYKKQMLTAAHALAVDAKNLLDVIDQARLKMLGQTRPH
T2 sequence (P50613 with tags, fused parts or gaps): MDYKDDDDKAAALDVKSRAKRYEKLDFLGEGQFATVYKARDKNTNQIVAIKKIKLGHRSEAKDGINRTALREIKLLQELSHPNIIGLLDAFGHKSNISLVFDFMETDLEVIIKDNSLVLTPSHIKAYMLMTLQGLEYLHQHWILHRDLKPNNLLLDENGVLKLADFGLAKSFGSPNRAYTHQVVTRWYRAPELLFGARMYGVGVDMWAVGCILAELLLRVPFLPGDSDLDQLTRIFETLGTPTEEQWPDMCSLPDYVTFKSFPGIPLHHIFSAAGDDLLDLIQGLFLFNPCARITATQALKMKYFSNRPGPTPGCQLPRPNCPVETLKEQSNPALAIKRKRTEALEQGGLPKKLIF
T2 sequence (as listed by the source partner): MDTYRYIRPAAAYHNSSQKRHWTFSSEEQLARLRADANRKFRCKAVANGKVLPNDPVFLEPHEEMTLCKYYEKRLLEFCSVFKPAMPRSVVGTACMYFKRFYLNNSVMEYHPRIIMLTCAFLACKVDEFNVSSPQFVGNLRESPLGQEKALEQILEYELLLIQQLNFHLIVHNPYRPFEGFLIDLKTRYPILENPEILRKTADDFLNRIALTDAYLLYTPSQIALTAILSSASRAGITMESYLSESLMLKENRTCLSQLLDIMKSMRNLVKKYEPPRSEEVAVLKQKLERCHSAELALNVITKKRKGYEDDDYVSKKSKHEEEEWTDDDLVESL

`CCCCNS(=O)(=O)c1cccc(-n2nnc3cnc(Nc4ccc(N5CCN(Cc6ccccc6)CC5)cc4)nc32)c1` [Compound 50, 3-{5-[4-(4-Benzyl-piperazin-1-yl)-phenylamino]-[1,2,3]triazolo[4,5-d]pyrimidin-3-yl]-N-butyl-benzene-sulfonamide]: in assay [1], the inhibition at 10 µM came out at 48.4%. Also, in assay [2], the inhibition at 20 µM came out at 31.7%.
In the case of `O=C(NCCCn1ccnc1)c1ccc(Nc2ncc3nnn(-c4ccc5c(c4)CCC5)c3n2)cc1` [Compound 74, N-(3-Imidazol-1-yl-propyl)-4-(3-indan-5-yl-3H-[1,2,3]triazolo[4,5-d]pyrimidin-5-ylamino)-benzamide], the inhibition at 10 µM in assay [1] was found to be 72.8%. Also, the inhibition at 20 µM in assay [2] amounted to 42.7%.
For `c1ccc(CN2CCN(c3ccc(Nc4ncc5nnn(Cc6ccccc6)c5n4)cc3)CC2)cc1` [Compound 59, [4-(4-Benzyl-piperazin-1-yl)-phenyl]-(3-benzyl-3H-[1,2,3]triazolo[4,5-d]pyrimidin-5-yl)-amine] the same measures were 25% and 47%.
For `O=C(NCCCN1CCCC1)c1ccc(Nc2ncc3nnn(-c4ccc5c(c4)CCC5)c3n2)cc1` [Compound 75, 4-(3-Indan-5-yl-3H-[1,2,3]triazolo[4,5-d]pyrimidin-5-ylamino)-N-(3-pyrrolidin-1-yl-propyl)-benzamide] the same measures were 77.9% and 84%.
The corresponding values for `NS(=O)(=O)c1ccccc1Nc1ncc2nnn(-c3ccccc3S(N)(=O)=O)c2n1` [Compound 46] are 29.2% and 44.9%.
As to `CCN(CC)CCOC(=O)c1ccc(Nc2ncc3nnn(-c4ccc5c(c4)CCC5)c3n2)cc1` [Compound 32, 4-(3-Indan-5-yl-3H-[1,2,3]triazolo[4,5-d]pyrimidin-5-ylamino)-benzoic acid 2-diethylamino-ethyl ester], the inhibition at 10 µM in assay [1] came out at 30.2%. The inhibition at 20 µM in assay [2] amounted to 42%.
Consider `O=C(NCCCn1ccnc1)c1cccc(Nc2ncc3nnn(-c4ccc5c(c4)CCC5)c3n2)c1` [Compound 79, N-(3-Imidazol-1-yl-propyl)-3-(3-indan-5-yl-3H-[1,2,3]triazolo[4,5-d]pyrimidin-5-ylamino)-benzamide], for which, in assay [1], the inhibition at 10 µM worked out at 80%. In addition, in assay [2], the inhibition at 20 µM is 86.6%.
The corresponding values for `Cc1nccc(-c2cccc(-n3nnc4cnc(Nc5ccc(-c6csnn6)cc5)nc43)c2)n1` [Compound 36, {3-[3-(2-Methyl-pyrimidin-4-yl)-phenyl]-3H-[1,2,3]triazolo[4,5-d]pyrimidin-5-yl}-(4-[1,2,3]thiadiazol-4-yl-phenyl)-amine] are -1.2% and 2.3%.
On to `OC1CCN(CCCOc2ccc(Nc3ncc4nnn(-c5ccc6c(c5)CCC6)c4n3)cc2)C1` (centres unmarked) [Compound 93, 1-{3-[4-(3-Indan-5-yl-3H-[1,2,3]triazolo[4,5-d]pyrimidin-5-ylamino)-phenoxy]-propyl}-pyrrolidin-3-ol], for which the inhibition at 10 µM in assay [1] is 90.8%. Moreover, in assay [2], the inhibition at 20 µM worked out at 101%.
Turning to `CNC(=O)c1cccc(Nc2ncc3nnn(-c4ccc(-c5csnn5)cc4)c3n2)c1` [Compound 39, N-Methyl-3-[3-(4-[1,2,3]thiadiazol-4-yl-phenyl)-3H-[1,2,3]triazolo[4,5-d]pyrimidin-5-ylamino]-benzamide], the inhibition at 10 µM in assay [1] came to 3.2%. For the same compound, the inhibition at 20 µM in assay [2] was -1.5%.
The corresponding values for `NS(=O)(=O)c1ccccc1-n1nnc2cnc(Nc3ccc4[nH]ncc4c3)nc21` [Compound 45, 2-[5-(1H-Indazol-5-ylamino)-[1,2,3]triazolo[4,5-d]pyrimidin-3-yl]-benzene-sulfonamide] are 21.8% and 16.2%.
The corresponding values for `CCN(CC)CCNC(=O)c1ccc(Nc2ncc3nnn(-c4cccc(-c5cnco5)c4)c3n2)cc1` [Compound 84, N-(2-Diethylamino-ethyl)-4-[3-(3-oxazol-5-yl-phenyl)-3H-[1,2,3]triazolo[4,5-d]pyrimidin-5-ylamino]-benzamide] are 46.6% and -58.9%.
Regarding `CN(Cc1ccccc1-n1nnc2cnc(Nc3ccc4c(c3)CCC4)nc21)C1CCCCC1` [Compound 20, (3-{2-[(Cyclohexyl-methyl-amino)-methyl]-phenyl}-3H-[1,2,3]triazolo[4,5-d]pyrimidin-5-yl)-indan-5-yl-amine], the inhibition at 10 µM in assay [1] came to 13%. The inhibition at 20 µM in assay [2] was 12.5%.
As for `CN(C)CC(O)COc1ccc(Nc2ncc3nnn(-c4ccc(F)c(F)c4)c3n2)cc1` (centres unmarked) [Compound 11, 1-{4-[3-(3,4-Difluoro-phenyl)-3H-[1,2,3]triazolo[4,5-d]pyrimidin-5-ylamino]-phenoxy}-3-dimethylamino-propan-2-ol], in assay [1], the inhibition at 10 µM came to 65.3%. In addition, the inhibition at 20 µM in assay [2] stood at 56%.
As for `CCCCCOc1ccc(Nc2ncc3nnn(-c4ccc5c(c4)CCC5)c3n2)cc1` [Compound 5, (3-Indan-5-yl-3H-[1,2,3]triazolo[4,5-d]pyrimidin-5-yl)-(4-pentyloxy-phenyl)-amine], the inhibition at 10 µM in assay [1] was 12.4%. The inhibition at 20 µM in assay [2] was determined as 25.9%.
The corresponding values for `c1cc(Nc2ncc3nnn(C4CCc5ccccc54)c3n2)cc(-c2nnn[nH]2)c1` (centres unmarked) [Compound 60, (3-Indan-1-yl-3H-[1,2,3]triazolo[4,5-d]pyrimidin-5-yl)-[3-(1H-tetrazol-5-yl)-phenyl]-amine] are 26.8% and -0.99%.
